Like-named read-outs stand apart in the source and are kept apart here.
Columns and labels:
[1] = system: Caenorhabditis elegans; assay: C. elegans nematode assay, overall rating over the Alzheimer and Parkinson tests; assay type: in vivo; conditions: for minimal effective concentration: Caenorhabditis elegans, read-out: Score
Protocol: The substances (1) to (41) and (101) to (108), prepared in the above synthesis examples or purchased, were tested for their potential suitability as an agent for treating Alzheimer's disease in a 96-well procedure in the initially mentioned screening assay using the nematode Caenorhabditis elegans (Pretsch et al., see above) in a standardized β-amyloid test system using the transgenic C. elegans strain CL2659. For this purpose, stage L3 worm larvae were used at a density of 10-20 worms per well. The expression of β-amyloid in the muscle cells was induced by increasing the temperature, and the associated paralysis was recorded at regular intervals until the end of the test after 48 hours.
(§1) For this purpose, the above substances were tested at concentrations of 1 mg/ml, 100 μg/ml, and 10 μg/ml in comparison with quercetin as a […] control.
(§2) The same substances as above were tested in a 96-well procedure in the initially mentioned screening assay using the nematode Caenorhabditis elegans (Pretsch et al., see above) in a standardized α-synuclein test system using the transgenic C. elegans strain NL5901 for their potential suitability as an agent for treating Parkinson's disease. This worm strain expresses human α-synuclein bound to green fluorescent protein (GFP) in all muscle cells. GFP labeling allows a direct detection of expressed protein levels using a multiplate reader for 24 to 48 hours.
(§3) For this purpose, the substances were again tested at concentrations of 1 mg/ml, 100 μg/ml, and 10 μg/ml, but this time in comparison to the initially mentioned Parkinson therapeutic agent levodopa as a control.

[2] = system: transgenic C. elegans strain NL5901; assay: α-synuclein test system: reduction of α-synuclein-GFP expression in transgenic C. elegans strain NL5901 (Parkinson testing); assay type: in vivo, Caenorhabditis elegans; conditions: NL5901, GFP readout 24 to 48 hours, tested at 1 mg/ml, 100 μg/ml, 10 μg/ml, — = no effect even at 1 mg/ml; for minimal effective concentration: Caenorhabditis elegans, read-out: Parkinson: concentration range in which a reduction in α-synuclein expression was detectable
Protocol: as §2, §3

[3] = system: transgenic C. elegans strain CL2659; assay: β-amyloid test system: delay of paralysis in transgenic C. elegans strain CL2659 (Alzheimer testing); assay type: in vivo, Caenorhabditis elegans; conditions: CL2659 stage L3 larvae, 48 hours, tested at 1 mg/ml, 100 μg/ml, 10 μg/ml, — = no effect even at 1 mg/ml; for minimal effective concentration: Caenorhabditis elegans, read-out: Alzheimer: concentration range in which a delay in paralysis was observed
Protocol: For this purpose, stage L3 worm larvae were used at a density of 10-20 worms per well. The expression of β-amyloid in the muscle cells was induced by increasing the temperature, and the associated paralysis was recorded at regular intervals until the end of the test after 48 hours.
as §1

[4] = rating from the effective concentration in both tests

SMILES | minimal effective concentration [1, 4] [µg/mL] | minimal effective concentration [2] [µg/mL] | minimal effective concentration [3] [µg/mL] | minimal effective concentration [1] [µg/mL] | further results
O=C(O)CC(=O)O [(1), malonic acid] | > 100 | > 100 | > 100 |  | concentration from which the compound was effective ([1]; both tests): > 100 µg/mL
NC(=O)CC(N)=O [(2), malonic acid diamide] | 10 to 100 | > 10 | > 10 |  | 
O=C([O-])CC(=O)[O-].[Na+].[Na+] [(3), disodium malonate] |  |  |  |  | Score [1, 4]: ++ (a compound that is already effective at a concentration >10 μg/ml and therefore rated “++”); Parkinson: concentration range in which a reduction in α-synuclein expression was detectable [2]: >10 µg/mL; Alzheimer: concentration range in which a delay in paralysis was observed [3]: >10 µg/mL
COC(=O)CC(=O)OC [(4), malonic acid dimethyl ester] | 10 to 100 | > 10 | > 10 |  | 
COC(=O)CC(=O)[O-].[K+] [(5), malonic acid methyl ester potassium salt] |  |  |  | 10 to 100 | 
COC(=O)CC(N)=O [(6), malonic acid methyl ester amide] |  |  |  |  | Score [1, 4]: + (a compound that is only effective above 100 μg/ml and therefore rated “+”); Parkinson: concentration range in which a reduction in α-synuclein expression was detectable [2]: >100 µg/mL; Alzheimer: concentration range in which a delay in paralysis was observed [3]: >100 µg/mL
NCCCNC(=O)CC(=O)O [(7), N-(3-aminopropyl)malonic acid amide] | > 100 | > 100 | > 100 |  | 
CCOC(=O)CC(=O)OC12CC3CC(CC(C3)C1)C2 [(9), malonic acid adamantan-1-yl ethyl ester] | 10 to 100 | > 10 | > 10 |  | 
O=C(O)CC(=O)OC12CC3CC(CC(C3)C1)C2 [(10), malonic acid adamantan-1-yl ester N-(3-aminopropyl)amide] | 10 to 100 | > 10 | > 10 |  | 
CN(CCCN)C(=O)CC(=O)OC12CC3CC(CC(C3)C1)C2 [(11), malonic acid adamantan-1-yl ester N-(3-aminopropyl)-N-methylamide] | 10 to 100 | > 10 | > 10 |  | 
O=C(CC(=O)N1CCNCC1)OC12CC3CC(CC(C3)C1)C2 [(12), malonic acid adamantan-1-yl ester piperazine amide] |  |  |  | 10 to 100 | 
NCCCC(=O)N1CCN(C(=O)CC(=O)OC23CC4CC(CC(C4)C2)C3)CC1 [(13), malonic acid adamantan-1-yl ester 4-(4-aminobutyryl)piperazine amide] | 10 to 100 | > 10 | > 10 |  | 
NC1CCN(C(=O)CC(=O)OC23CC4CC(CC(C4)C2)C3)CC1 [(14), malonic acid adamantan-1-yl ester 4-aminopiperidine amide] | 10 to 100 | > 10 | > 10 |  | 
NCCCC(=O)NC1CCN(C(=O)CC(=O)OC23CC4CC(CC(C4)C2)C3)CC1 [(15), malonic acid adamantan-1-yl ester (4-(4-aminobutyryl)amino)piperidine amide] | 10 to 100 | > 10 | > 10 |  | 
COC(=O)CC(=O)NC12CC3CC(CC(C3)C1)C2 [(16), malonic acid methyl ester N-(adamantan-1-yl)amide] | 10 to 100 | > 10 | > 10 |  | 
O=C(O)CC(=O)NC12CC3CC(CC(C3)C1)C2 [(17), N-(adamantan-1-yl)malonic acid amide] | 10 to 100 | > 10 | > 10 |  | 
NCCCNC(=O)CC(=O)NC12CC3CC(CC(C3)C1)C2 [(18), N-adamantan-1-yl-N′-(3-aminopropyl)malonic acid diamide] | > 100 | > 100 | > 100 |  | 
CN(CCCN)C(=O)CC(=O)NC12CC3CC(CC(C3)C1)C2 [(19), N-adamantan-1-yl-N′-(3-aminopropyl)-N′-methyl malonic acid diamide] | 10 to 100 | > 10 | > 10 |  | 

SMILES | minimal effective concentration [1, 4] [µg/mL] | minimal effective concentration [2] [µg/mL] | minimal effective concentration [3] [µg/mL] | minimal effective concentration [1] [µg/mL] | further results
NCCCNC(=O)CC(=O)N1CCOCC1 [(22), N-(3-aminopropyl)-N′-morpholine malonic acid diamide] |  |  |  | 10 to 100 | 
NCCCNC(=O)CC(=O)N1CCCCC1 [(23), N-(3-aminopropyl)-N′-piperidine malonic acid diamide] |  |  |  | 10 to 100 | 
O=C(CC(=O)N1CCN(Cc2cccc(C(F)(F)F)c2)CC1)OC12CC3CC(CC(C3)C1)C2 [(29), malonic acid adamantan-1-yl ester 4-(3-trifluoromethylbenzyl)piperazine amide] |  |  |  | 10 to 100 | 
O=C(CC(=O)N1CCN(Cc2cccc(F)c2)CC1)OC12CC3CC(CC(C3)C1)C2 [(30), malonic acid adamantan-1-yl ester 4-(3-fluorobenzyl)piperazine amide] |  |  |  | 10 to 100 | 
COc1ccccc1N1CCN(C(=O)CC(=O)OC23CC4CC(CC(C4)C2)C3)CC1 [(31), malonic acid adamantan-1-yl ester 4-(2-methoxyphenyl)piperazine amide] |  |  |  | 10 to 100 | 
CC12CC3CC(C)(C1)CC(NC(=O)CC(=O)N1CCNCC1)(C3)C2 [(35), N-(3,5-dimethyladamantan-1-yl)-N′-piperazine malonic acid diamide] |  |  |  | 10 to 100 | 
CC12CC3CC(C)(C1)CC(NC(=O)CC(=O)N1CCN(Cc4cccc(C(F)(F)F)c4)CC1)(C3)C2 [(36), N-(3,5-dimethyladamantan-1-yl)-N′-4-(3-trifluoromethylbenzyl)piperazine malonic acid diamide] |  |  |  | 10 to 100 | 
CC12CC3CC(C)(C1)CC(NC(=O)CC(=O)N1CCN(Cc4cccc(F)c4)CC1)(C3)C2 [(37), N-(3,5-dimethyladamantan-1-yl)-N′-4-(3-fluorobenzyl)piperazine malonic acid diamide] |  |  |  | 10 to 100 | 
COc1ccc(N2CCN(C(=O)CC(=O)NC34CC5CC(C)(CC(C)(C5)C3)C4)CC2)cc1 [(39), N-(3,5-dimethyladamantan-1-yl)-N′-4-(4-methoxyphenyl)piperazine malonic acid diamide] |  |  |  | 10 to 100 | 
COc1ccc(N2CCN(C(=O)CC(=O)NC34CC5CC(C)(CC(C)(C5)C3)C4)CC2)c(OC)c1 [(40), N-(3,5-dimethyladamantan-1-yl)-N′-4-(2,4-dimethoxyphenyl)piperazine malonic acid diamide] |  |  |  | 10 to 100 | 
CC(C)(C(=O)O)C(=O)O [(101), Dimethyl malonic acid, reference compound] |  |  |  |  | efficacy in the C. elegans assay ([1]; both tests): neither dimethyl malonic acid (101) nor dimethyl malonic acid dimethyl ester (102) proved to be effective; Score [1, 4]: −
COC(=O)C(C)C(=O)OC [(102), Methyl malonic acid dimethyl ester, reference compound] |  |  |  |  | efficacy in the C. elegans assay ([1]; both tests): neither dimethyl malonic acid (101) nor dimethyl malonic acid dimethyl ester (102) proved to be effective; Score [1, 4]: −
NCCCNC(=O)C12CC3CC(CC(C3)C1)C2 [(103), 1-Adamantane carboxylic acid-N-(3-aminopropyl)amide, reference compound] |  |  |  |  | Score [1, 4]: −
CC(C)(C)OC(=O)NCCCN [(104), 3-Aminopropyl carbamic acid tert-butyl ester, reference compound] |  |  |  |  | Score [1, 4]: −
CNCCCNC(=O)OC(C)(C)C [(105), 3-(Methylamino)propyl carbamic acid tert-butyl ester, reference compound] |  |  |  |  | Score [1, 4]: −
OC12CC3CC(CC(C3)C1)C2 [(106), 1-Adamantanol, reference compound] |  |  |  |  | Score [1, 4]: −
NC12CC3CC(CC(C3)C1)C2 [(107), 1-Adamantanamine, reference compound] |  |  |  |  | Score [1, 4]: −
NCCCNC(=O)CC(=O)N1CCCc2ccccc21 [(108), N-(3-aminopropyl)-N′-tetrahydroquinoline malonic acid diamide] |  |  |  |  | efficacy in the C. elegans assay ([1]; both tests): ineffectiveness; Score [1, 4]: −
